From ChEMBL document CHEMBL1287781, “Novel lipophilic 7H-pyrido[1,2,3-de]-1,4-benzoxazine-6-carboxylic acid derivatives as potential antitumor agents: improved synthesis and in vitro evaluation” (Bioorg Med Chem, 2010) come the findings set out here.

In general, IC50 refers to the concentration needed to halve the response being measured.

Calls of active or inactive are those of the source. No cut-off for these calls is given here.

Series [1] concerns A549. Put plainly: Anticancer activity against human A549 after 5 days by MTT assay. Type of series: functional, cell-based. As to conditions: A549, 120 h. Background: Formazan colour is commonly taken as a measure of viable cells.
The subject of series [2] is PC-3. As to the kind of experiment: Anticancer activity against human PC3 after 5 days by MTT assay. Format: functional, cell-based. As to conditions: PC-3, 120 h.
Series [3] deals with LoVo. Put plainly: Anticancer activity against human LoVo cells after 5 days by MTT assay. Type of series: functional, cell-based. The note with it: 120 h.
Series [4] relates to MCF7. Put plainly: Anticancer activity against human MCF7 after 5 days by MTT assay. Format: functional, cell-based. The note with it: MCF7, 120 h.
Series [5] in a line: Anticancer activity against human U373MG after 5 days by MTT assay. The note with it: U373 MG, 120 h. Type of series: functional, cell-based, U-373MG ATCC.
The nature of series [6]: Chemical stability of the compound in phosphate buffer at pH 7.4 after 7 days. Format: physicochemical. The note with it: read-out: Stability.
Series [7] has as its system U-373MG ATCC. As to the kind of experiment: Antimigratory activity against human U373MG at 1 uM after 6 days by phase-contrast microscopy. Type of series: functional, cell-based.
In series [8] the test system is U-373MG ATCC. Put plainly: Antimigratory activity against human U373MG at 0.1 uM after 6 days by phase-contrast microscopy. Format: functional, cell-based.
The nature of series [9]: Toxicity in ip dosed B6D2F1 mouse after 28 days. Format: organism-based. As to conditions: in vivo.
In series [10] the test system is A549. As to the kind of experiment: Anticancer activity against human A549 after 3 to 5 days by MTT assay. Type of series: functional, cell-based.
The test system of series [11] is LoVo. As to the kind of experiment: Anticancer activity against human LoVo cells after 3 to 5 days by MTT assay. Format: functional, cell-based.
Series [12] concerns U-373MG ATCC. Put plainly: Anticancer activity against human U373MG after 3 to 5 days by MTT assay. Format: functional, cell-based.
The subject of series [13] is PC-3. Put plainly: Anticancer activity against human PC3 after 3 to 5 days by MTT assay. Format: functional, cell-based.
For series [14], the system named is MCF7. Put plainly: Anticancer activity against human MCF7 after 3 to 5 days by MTT assay. Format: functional, cell-based.
Series [15] deals with MCF7. As to the kind of experiment: Anticancer activity against human MCF7 by sulforhodamine B assay. Format: functional, cell-based.
Series [16] concerns A549. Put plainly: Anticancer activity against human A549 by sulforhodamine B assay. Type of series: functional, cell-based.

As for `CCCCCCNC(=O)c1cn2c3c(c(N4CCN(C)CC4)c(F)cc3c1=O)OC[C@@H]2C`, the IC50 was determined as 6 µM in [1]; 12 µM in [2]; 5 µM in [3]; 16 µM in series [4]; 4 µM in [5]. In addition, the remaining at 168 h in series [6] is 100%.
`CCCCCCCCCCCC(=O)OCOC(=O)c1cn2c3c(c(N4CCN(C)CC4)c(F)cc3c1=O)OC[C@@H]2C`: the outcome in series [7] and in [8] was inactive. Further, the IC50 in [1] came to 65 µM; in [2], 86 µM; in series [3], 0.3 µM; in series [4], 0.3 µM; in [5] it was 0.2 µM. In series [6], the remaining at 168 h was above 91%.
With `CCCCCCCCCCCCCCCNC(=O)c1cn2c3c(c(N4CCN(C)CC4)c(F)cc3c1=O)OC[C@@H]2C`, the half-maximal inhibitory concentration (IC50) was 8 µM in series [1]; 5 µM in [2]; 6 µM in series [3]; 15 µM in series [4]; 7 µM in [5].
With `CCCCCCCCCC(=O)OCOC(=O)c1cn2c3c(c(N4CCN(C)CC4)c(F)cc3c1=O)OC[C@@H]2C`, the IC50 in [1], in [2], in series [3], in series [4] and in series [5] was above 1000 µM in each case. In series [9], this compound registered an MTD at 672 h above 80 mg/kg.
As for `CCCCCCCCCCCCCC(=O)OCOC(=O)c1cn2c3c(c(N4CCN(C)CC4)c(F)cc3c1=O)OC[C@@H]2C`, the concentration for half-maximal inhibition (IC50) in series [1] worked out at 617 µM; in [2], 71 µM; in series [3], 21 µM; in series [4], 6 µM; in [5] it was 8 µM.
With `CCCCCCCCNC(=O)c1cn2c3c(c(N4CCN(C)CC4)c(F)cc3c1=O)OC[C@@H]2C`, the IC50 in [1] came to 2.2 µM; in [2], 1.5 µM; in series [3], 0.8 µM; in series [4] it was 2.1 µM; in series [5], 2.3 µM. The Activity result in series [10], in series [11], in [12], in series [13] and in [14] was “Dose-dependent effect” throughout. The remaining at 168 h in [6] amounted to 100%.
Turning to `CCCCCCCCCCCCCCCC(=O)OCOC(=O)c1cn2c3c(c(N4CCN(C)CC4)c(F)cc3c1=O)OC[C@@H]2C`, the IC50 in series [1] was determined as 46 µM; in series [2], 56 µM; in [3], 6 µM; in series [4] it was 8 µM; in [5], 4 µM. In addition, the remaining at 168 h in series [6] is above 93%.
Consider `CCCCNC(=O)c1cn2c3c(c(N4CCN(C)CC4)c(F)cc3c1=O)OC[C@@H]2C`, for which the IC50 was 46 µM in series [1]; 30 µM in [2]; 24 µM in series [3]; 55 µM in series [4]; 113 µM in series [5]. The remaining at 168 h in series [6] is above 97%.
In the case of `CCCCCCCNC(=O)c1cn2c3c(c(N4CCN(C)CC4)c(F)cc3c1=O)OC[C@@H]2C`, the IC50 in series [1] turned out to be 3 µM; in series [2] it was 4 µM; in series [3], 1 µM; in [4] it was 5 µM; in series [5] it was 3 µM.
`CCCCCCCCCCCCCCCCCC(=O)OCOC(=O)c1cn2c3c(c(N4CCN(C)CC4)c(F)cc3c1=O)OC[C@@H]2C`: the outcome in [7] and in [8] was inactive. Further, the IC50 in [1] came out at 593 µM; in series [2] it was 100 µM; in series [3] it was 4 µM; in series [4] it was 12 µM; in series [5], 0.9 µM.
As for `CCCCCC(=O)OCOC(=O)c1cn2c3c(c(N4CCN(C)CC4)c(F)cc3c1=O)OC[C@@H]2C`, the IC50 in [1] is 235 µM; in series [2] it was 207 µM; in series [3], 162 µM; in [4] it was 183 µM; in series [5], 199 µM. The same compound came in with an MTD at 672 h in [9] above 80 mg/kg.
In the case of `C[C@H]1COc2c(N3CCN(C)CC3)c(F)cc3c(=O)c(-c4nc5ccc([N+](=O)[O-])cc5s4)cn1c23`, the IC50 in series [15] and in series [16] was above 10 µM in each case.
For the compound `CCCCCCCCCCNC(=O)c1cn2c3c(c(N4CCN(C)CC4)c(F)cc3c1=O)OC[C@@H]2C`, the IC50 in [1] came to 3 µM; in series [2], 3 µM; in series [3], 3 µM; in series [4], 5 µM; in [5], 3 µM.
Turning to `CO/N=C(/CN1CCN(c2cc3c(cc2F)c(=O)c(C(=O)O)cn3C2CC2)CC1)c1ccc(Cl)s1`, the IC50 in series [4] was 2.9 µM.
Consider `CCCC(=O)OCOC(=O)c1cn2c3c(c(N4CCN(C)CC4)c(F)cc3c1=O)OC[C@@H]2C`, for which the IC50 was 3 µM in series [1]; 31 µM in series [2]; 5 µM in [3]; 35 µM in [4]; 40 µM in series [5]. The remaining at 168 h in series [6] is above 92%.
As to `CCCCCCCCCCCCCCNC(=O)c1cn2c3c(c(N4CCN(C)CC4)c(F)cc3c1=O)OC[C@@H]2C`, the IC50 in [1] stood at 5 µM; in series [2] it was 3 µM; in [3] it was 3 µM; in series [4], 5 µM; in series [5], 3 µM. Moreover, the remaining at 168 h in [6] was above 98%.
For the compound `C[C@H]1COc2c(N3CCN(C)CC3)c(F)cc3c(=O)c(C(=O)O)cn1c23` [LEVOFLOXACIN], the IC50 in [1] was 70 µM; in series [2], 238 µM; in series [3], 67 µM; in series [4] it was 622 µM; in [5] it was 188 µM. For the same compound, the Activity entry in series [10], in [11], in series [12], in series [13] and in [14] was “Dose-dependent effect” throughout.
On to `CCCCCCCCCCCCNC(=O)c1cn2c3c(c(N4CCN(C)CC4)c(F)cc3c1=O)OC[C@@H]2C`, for which the IC50 in series [1] was 5 µM; in series [2], 5 µM; in [3], 3 µM; in series [4], 10 µM; in [5], 5 µM.
As to `CCCCCCCC(=O)OCOC(=O)c1cn2c3c(c(N4CCN(C)CC4)c(F)cc3c1=O)OC[C@@H]2C`, the IC50 was found to be 289 µM in series [1]; 230 µM in series [2]; 209 µM in [3]; 238 µM in series [4]; 243 µM in [5]. In addition, the remaining at 168 h in [6] is above 90%. The same compound returned an MTD at 672 h in series [9] above 80 mg/kg.
